{"source": "patent US20020151588A1", "about": "“Dissociated glucocorticoid receptor antagonists for the treatment of glucocorticoid associated side effects” (priority 2000, published 2002)", "key": {"[1]": {"target": "recombinant human GR (Homo sapiens, UniProt P04150)", "sequence (P04150 whole entry, other chains not shown)": "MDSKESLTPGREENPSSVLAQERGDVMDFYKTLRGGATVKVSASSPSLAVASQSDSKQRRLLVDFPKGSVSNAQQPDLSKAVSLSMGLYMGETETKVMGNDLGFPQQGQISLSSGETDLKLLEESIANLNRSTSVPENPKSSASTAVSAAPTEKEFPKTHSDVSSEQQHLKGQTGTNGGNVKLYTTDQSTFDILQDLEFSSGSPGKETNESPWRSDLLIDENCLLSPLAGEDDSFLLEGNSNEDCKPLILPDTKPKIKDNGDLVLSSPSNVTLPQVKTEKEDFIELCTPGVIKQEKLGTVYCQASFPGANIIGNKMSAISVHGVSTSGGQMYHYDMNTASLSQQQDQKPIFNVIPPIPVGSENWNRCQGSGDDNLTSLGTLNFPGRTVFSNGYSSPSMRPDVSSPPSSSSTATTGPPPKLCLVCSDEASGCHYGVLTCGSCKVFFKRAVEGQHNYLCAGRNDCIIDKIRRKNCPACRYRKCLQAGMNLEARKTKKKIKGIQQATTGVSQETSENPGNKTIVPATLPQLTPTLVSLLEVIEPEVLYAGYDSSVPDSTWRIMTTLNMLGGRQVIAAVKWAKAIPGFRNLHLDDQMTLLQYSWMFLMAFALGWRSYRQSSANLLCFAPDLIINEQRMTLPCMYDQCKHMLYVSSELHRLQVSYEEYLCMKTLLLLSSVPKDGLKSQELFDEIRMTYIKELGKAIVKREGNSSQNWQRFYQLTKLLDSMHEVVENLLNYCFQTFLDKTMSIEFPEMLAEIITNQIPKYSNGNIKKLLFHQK", "assay": "GR Competitive Binding Assay", "settings": "after correction for compound determined to be in solution by HPLC analysis; read-out: IC50, competition with [6,7-3H(N)]-dexamethasone for binding to GR", "protocol": "All procedures were performed at 4° C.\nTest compounds were dissolved to 1 mM in neat DMSO and then further diluted to 10×assay concentration in assay buffer supplemented with 10% v/v DMSO."}, "[2]": {"system": "tyrosine aminotransferase (TAT) in rat hepatoma cells", "assay": "Induction of tyrosine aminotransferase (TAT) in H4-II-E-C3 rat hepatoma cells", "format": "cell-based", "protocol": "H4-II-E-C3 rat hepatoma cells were incubated overnight in 96 well plates (20,000 cells/200 μl/well) in EMEM medium containing 10% heat inactivated FBS (fetal bovine serum). […] Control cells were treated with 0.1% DMSO. After 18 hours, the cells were lysed in a buffer containing 0.1% Triton X-100 and the TAT activity was measured in a photometric assay using tyrosine and -keto g lutarate as substrates (FIG. 3a).\nThe steroidal not dissociated GR/PR antagonist RU486 was used as control (FIG. 3b)."}, "[3]": {"system": "MMTV-(mouse mammary tumor virus) promoter in HeLa cells", "assay": "Stimulation of MMTV promoter (luciferase) in HeLa cells", "format": "cell-based", "protocol": "HeLa cells stably co-transfected with the pHHLuc-construct containing a fragment of the MMTV-LTR (−200 to +100 relative to the transcription start site) cloned in front of the luciferase gene and the pcDNA3.1 plasmid (Invitrogen) constitutively expressing the resistance for the antibioticum geneticin. Clones with best induction of the MMTV-promoter were selected and used for further experiments.\nCells were cultured overnight in DMEM medium w/o phenol red supplemented with 3% CCS (charcoal treated calf serum) and then transferred to 96 well plates (20,000 cells/100 μl/well). […] Control cells were treated with DMSO only. Twenty four hours later the cells were lysed with cell lysis reagent (Promega, Cat. No. E1531), luciferase assay reagent (Promega, Cat. No. E1501) was added and the flash luminescence was measured using a BMG luminometer (FIG. 4a).\nThe steroidal non-selective GR/PR antagonist RU486 was used as control (FIG. 4b)."}, "[4]": {"system": "LPS-induced IL-8 secretion in U-937 cells", "assay": "GR-mediated inhibition of LPS-induced IL-8 secretion in U-937 cells", "format": "cell-based, human", "settings": "1 μg/ml LPS", "protocol": "U-937 cells were incubated for 4 days in RPM11640 medium containing 10% CCS (charcoal treated calf serum). […] Control cells were treated with 0.1% DMSO.\nEighteen hours later the IL-8 concentration in the cell supernatant was measured by ELISA, using the “OptEIA human IL-8 set” (Pharmingen, Cat.No. 2654KI) (FIG. 5a).\nThe steroidal not dissociated GR/PR antagonist RU486 was used as control (FIG. 5b)."}, "[5]": {"system": "ICAM-promoter in HeLa cells", "assay": "Inhibition of TNF-α induced activation of the ICAM-promoter (luciferase) in HeLa cells", "format": "cell-based, human", "settings": "20 ng/ml TNF-α", "protocol": "HeLa cells were stably co-transfected with a construct containing a 1.3 kb fragment of the human ICAM-promoter (−1353 to −9 relative to the transcription start site, cloned in front of the luciferase gene and the pcDNA3.1 plasmid (Invitrogen) which constitutively express the resistance for the antibioticum geneticin. Clones with best induction of the ICAM-promoter were selected and used for further experiments. Cells were transferred to 96 well plates (20,000 cells/100 μl/well) in DMEM medium supplemented with 3% CCS. On the following day the activation of the ICAM-promoter was induced by addition of 20 ng/ml recombinant TNF-α (R&D System, Cat. No. 210-TA). […] Control cells were treated with DMSO only. Twenty four hours later the cells were lysed with cell lysis reagent (Promega, Cat. No. E1531), luciferase assay reagent (Promega, Cat. No. E1501) was added and flash luminescence was measured using a BMG luminometer (FIG. 6a).\nThe steroidal not dissociated GR/PR antagonist RU486 was used as control (FIG. 6b)."}, "[6]": {"system": "PMA-induced neutrophils influx in mice ear", "assay": "PMA-induced ear edema in mice (myeloperoxidase)", "format": "in vivo", "settings": "for Myeloperoxidase (treated-untreated ear) ± S.E.M.: 24 hours after PMA", "protocol": "(§1) Female albino mice (Han:NMRI) obtained form Harlan and weighing about 20-25 g were used. The animals were provided with standardized pellet diet (Altromin 8013) and had tap water freely available. The animals were accommodated in a climate room with a 12-hour light/dark cycle and kept in groups.\n(§2) All test compounds were administered orally (0.2 ml/10 g body weight (bw) ) in a dose of 100 mg/kg p.o. The compounds were “dissolved” in 0.2% hydroxypropylmethylcellulose and olive oil mixed 1:1 (v/v).\nMice were lightly anaesthetized by ether and 50 ng PMA (5 μl) were applied to each side of the left ear. […] The animals were sacrificed by ether 24 hours later, and a biopsy (diameter 8 mm) was punched out from both ears to assess an increase of neutrophils in the left ear compared with the right ear. Tissue samples were homogenized in 1 ml 0.5% HTAB (Hexadecyl-trimethyl-ammonium-bromide; Sigma H-5882; dissolved in 0.05 M phosphate buffer, pH 6.0) using a tissue homogenizer (IKA-Ultraturrax T5; Janke & Kunkel, Staufen/Breisgau) at 30000 RPM for 15 seconds under cooling. After centrifugation (16000 g, 5 min) the supernatants were frozen until processing for myeloperoxidase (MPO). Determination in the supernatants for MPO, a neutrophil marker enzyme, served as a quantitative index for the neutrophil accumulation. MPO was determined spectrophotometrically at 450 nm using a microplate version of the method of Bradley (1982) and microplate reader (Vmax; Molecular Devices, Palo Alto) suitable for kinetic measurements. The values are expressed as increase in milli optical densities per min (m O.D./min) (Table 1a and b)."}, "[7]": {"system": "tyrosine aminotransferase (TAT) in mice liver", "assay": "TAT induction in mice liver", "format": "in vivo", "settings": "for TAT-induction ± S.E.M.: mice liver, 8 hours after administration", "protocol": "as §1, §2\nEight hours after compounds were administered the animals were killed and a punch (diameter 8 mm) was taken from the liver and immediately frozen in liquid nitrogen. The weighed liver punches were thawed for 3 minutes and homogenized after the addition 1 ml of phosphate buffer (pH 7.6) using a tissue homogenizer as described above. After centrifugation the supernatants were frozen at −20° C. until processing. For processing the samples were thawed and protein was determined using a kit employing 96 well microtiterplates commercially available from Fa. Pierce (No 23225). The activity of tyrosineaminotransferase (TAT) was determined in the supernatant, which was diluted 1:100 in phosphate buffer. The reaction is started by the addition of tyrosine in pyrodoxal-5-phosphate and α ketoglutaric acid at pH 7.6 and incubated for 30 minutes at 37° C. The reaction is stopped by the addition of 10 M KOH and a further incubation of 30 minutes is allowed for the formation of p-hydroxy-benzylaldehyde, which can be measured at 492 nm using a microplate reader. The values (optical densities) are calculated with respect to the protein concentration (O.D./mg protein) (Table 1a and b)."}, "[8]": {"system": "croton-oil induced ear edema, carrageenan-induced paw edema; systemic side-effects of glucocorticoids", "assay": "In vivo co-administration with dexamethasone or prednisolone in inflammation models"}, "[9]": {"settings": "co-administered with prednisolone, each 100 mg/kg p.o."}}, "note": "Values joined by “and” are separate entries in the source; they are usually repeats but may differ in a detail not shown here. Equal entries are not always repeated.", "data": [{"smiles": "COc1cc(C(=O)c2cccc(C)c2)c(Oc2c(Br)cc(CC(=O)O)cc2Br)cc1C(C)C", "note": "[EXRS1370SE]", "values": [{"measurement": "IC50", "setting": "[1]", "value": 69, "unit": "nM"}, {"measurement": "antagonistic activity on dexamethasone-induced TAT-induction", "setting": "[2]; rat hepatoma cells pre-stimulated with dexamethasone 3e-9 mol/l", "value": "shows antagonistic activity"}, {"measurement": "agonistic activity in induction of tyrosine aminotransferase (TAT)", "setting": "[2]; rat hepatoma cells, 18 hours", "value": "does not show agonistic activity"}, {"measurement": "antagonistic activity in stimulation of MMTV promoter", "setting": "[3]; HeLa cells pre-stimulated with 3e-8 mol/l dexamethasone", "value": "antagonistic activity"}, {"measurement": "agonistic activity in stimulation of MMTV promoter", "setting": "[3]; HeLa cells, 24 hours", "value": "no agonistic"}, {"measurement": "agonistic activity in GR-mediated inhibition of LPS-induced IL-8 secretion", "setting": "[4]; 18 hours", "value": "no agonistic"}, {"measurement": "antagonistic activity in GR-mediated inhibition of LPS-induced IL-8 secretion", "setting": "[4]; IL-8 secretion inhibited with 3e-8 mol/l dexamethasone", "value": "no antagonistic activity"}, {"measurement": "agonistic activity in inhibition of TNF-α induced activation of the ICAM-promoter", "setting": "[5]; 24 hours", "value": "no agonistic"}, {"measurement": "antagonistic activity in inhibition of TNF-α induced activation of the ICAM-promoter", "setting": "[5]; inhibited with 3e-8 mol/l dexamethasone", "value": "no antagonistic activity"}, {"measurement": "antagonism of the anti-inflammatory effect of prednisolone in the ear inflammation model", "setting": "[6]; 100 mg/kg p.o.", "value": "does not significantly antagonize"}, {"measurement": "Myeloperoxidase (treated-untreated ear) ± S.E.M.", "setting": "[6]; [9]", "value": "140 ± 47", "unit": "mO.D./min"}, {"measurement": "Myeloperoxidase (treated-untreated ear) ± S.E.M.", "setting": "[6]; compound alone 100 mg/kg p.o.", "value": "443 ± 90", "unit": "mO.D./min"}, {"measurement": "antagonism of the prednisolone-induced induction of tyrosine aminotransferase in liver", "setting": "[7]; 100 mg/kg p.o., mice", "value": "can antagonize significantly"}, {"measurement": "TAT-induction ± S.E.M.", "setting": "[7]; [9]", "value": "12.00 ± 1.26", "unit": "O.D./mg protein"}, {"measurement": "TAT-induction ± S.E.M.", "setting": "[7]; compound alone 100 mg/kg p.o.", "value": "3.85 ± 0.43", "unit": "O.D./mg protein"}, {"measurement": "systemic side-effect of the glucocorticoids (TAT in liver, blood glucose, free fatty acids level, renal function)", "setting": "[8]; co-administration with dexamethasone or prednisolone", "value": "no/reduced a systemic side-effect"}, {"measurement": "anti-inflammatory activity of the glucocorticoid on co-administration", "setting": "[8]; co-administration with dexamethasone or prednisolone in inflammation models", "value": "retain the anti-inflammatory activity of the glucocorticoid"}]}, {"smiles": "CC#C[C@]1(O)CC[C@H]2[C@@H]3CCC4=CC(=O)CCC4=C3[C@@H](c3ccc(N(C)C)cc3)C[C@@]21C", "note": "[Mifepristone, 11-[4-Dimethylamino]phenyl-17-hydroxy-17[1-propynyl]estra-4,9-dien-3-one]", "values": [{"measurement": "Myeloperoxidase (treated-untreated ear) ± S.E.M.", "setting": "[6]; [9]", "value": "1565 ± 435", "unit": "mO.D./min"}, {"measurement": "Myeloperoxidase (treated-untreated ear) ± S.E.M.", "setting": "[6]; compound alone 100 mg/kg p.o.", "value": "931 ± 261", "unit": "mO.D./min"}, {"measurement": "TAT-induction ± S.E.M.", "setting": "[7]; [9]", "value": "6.60 ± 0.38", "unit": "O.D./mg protein"}, {"measurement": "TAT-induction ± S.E.M.", "setting": "[7]; compound alone 100 mg/kg p.o.", "value": "4.62 ± 0.36", "unit": "O.D./mg protein"}]}, {"smiles": "C[C@]12C=CC(=O)C=C1CC[C@@H]1[C@@H]2[C@@H](O)C[C@@]2(C)[C@H]1CC[C@]2(O)C(=O)CO", "note": "[Prednisolone]", "values": [{"measurement": "Myeloperoxidase (treated-untreated ear) ± S.E.M.", "setting": "[6]; compound alone 100 mg/kg p.o.", "value": "48 ± 13 mO.D./min and 34 ± 17 mO.D./min"}, {"measurement": "TAT-induction ± S.E.M.", "setting": "[7]; compound alone 100 mg/kg p.o.", "value": "17.75 ± 0.86 O.D./mg protein and 13.45 ± 0.93 O.D./mg protein"}]}]}
